Measured values: patent publication US12655142B2 (Merck Patent GmbH, priority 2019, dated 2026)

Key:
[1] = Determination of Efflux-Ratio (ER) in Caco-2 cells; details: human, Caco-2, pH 7.4
[2] = molecular target: T1, GIST430/654 cell line expressing mutated constitutively active cKIT receptor tyrosine kinase (Δ560-576 deletion and V654A point mutation) (Homo sapiens, UniProt P10721, DEL560-576/V654A); assay: Cellular cKIT autophosphorylation (phospho-Y307-cKIT, Luminex bead assay) in GIST430/654 cells; type: cell-based; details: compounds 45 min, read-out: GIST 430/654 IC50
T1 construct: endogenous in cells; host or cells: GIST430/654 cells
T1 sequence (P10721 with tags, fused parts or gaps DEL560-576/V654A): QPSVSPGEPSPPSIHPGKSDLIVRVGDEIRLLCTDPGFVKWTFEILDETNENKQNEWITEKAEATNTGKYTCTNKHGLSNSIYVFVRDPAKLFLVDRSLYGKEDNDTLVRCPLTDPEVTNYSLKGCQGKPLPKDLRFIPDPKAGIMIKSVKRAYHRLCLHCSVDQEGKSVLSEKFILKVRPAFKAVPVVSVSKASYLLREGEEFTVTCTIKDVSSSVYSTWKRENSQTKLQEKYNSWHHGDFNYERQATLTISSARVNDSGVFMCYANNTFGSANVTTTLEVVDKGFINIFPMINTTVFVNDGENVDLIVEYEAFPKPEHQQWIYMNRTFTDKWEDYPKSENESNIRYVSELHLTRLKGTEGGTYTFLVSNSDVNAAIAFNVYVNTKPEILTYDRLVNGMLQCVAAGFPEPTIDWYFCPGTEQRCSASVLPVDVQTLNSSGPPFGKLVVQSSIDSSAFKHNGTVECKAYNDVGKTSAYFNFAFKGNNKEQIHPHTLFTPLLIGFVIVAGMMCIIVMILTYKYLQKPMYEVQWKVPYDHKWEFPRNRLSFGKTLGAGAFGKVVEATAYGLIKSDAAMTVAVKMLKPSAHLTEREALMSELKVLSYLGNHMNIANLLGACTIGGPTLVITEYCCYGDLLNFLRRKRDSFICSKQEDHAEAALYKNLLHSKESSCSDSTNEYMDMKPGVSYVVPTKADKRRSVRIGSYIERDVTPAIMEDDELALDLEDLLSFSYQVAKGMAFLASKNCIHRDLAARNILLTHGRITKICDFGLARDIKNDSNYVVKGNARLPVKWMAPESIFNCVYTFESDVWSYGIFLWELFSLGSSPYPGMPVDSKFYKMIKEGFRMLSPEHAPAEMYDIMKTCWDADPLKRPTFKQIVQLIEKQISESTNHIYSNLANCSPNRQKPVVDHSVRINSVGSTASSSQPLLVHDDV
Method in brief: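 GIST430 (Δ560-576) and imatinib-resistant GIST430/654 (plus V654A; grown with 100 nM imatinib) cells were plated in IMDM/15% FCS and treated next day with serially diluted compound for 45 min. Lysates were captured on anti-total-cKIT Luminex beads overnight at 4 °C and probed for phospho-Y307. IC50 was taken from percent of 0.3% DMSO control.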

[3] = molecular target: T2, c-Kit(V654A) (Homo sapiens, UniProt P10721, V654A); assay: c-Kit(V654A) assay (33P-ATP filter binding kinase assay); type: biochemical; details: recombinant human c-Kit aa 544-end V654A, ATP 200 μM
T2 construct: recombinant human c-Kit, amino acids 544-end containing the V654A mutation; GST (N)
T2 sequence (P10721 544-976 V654A): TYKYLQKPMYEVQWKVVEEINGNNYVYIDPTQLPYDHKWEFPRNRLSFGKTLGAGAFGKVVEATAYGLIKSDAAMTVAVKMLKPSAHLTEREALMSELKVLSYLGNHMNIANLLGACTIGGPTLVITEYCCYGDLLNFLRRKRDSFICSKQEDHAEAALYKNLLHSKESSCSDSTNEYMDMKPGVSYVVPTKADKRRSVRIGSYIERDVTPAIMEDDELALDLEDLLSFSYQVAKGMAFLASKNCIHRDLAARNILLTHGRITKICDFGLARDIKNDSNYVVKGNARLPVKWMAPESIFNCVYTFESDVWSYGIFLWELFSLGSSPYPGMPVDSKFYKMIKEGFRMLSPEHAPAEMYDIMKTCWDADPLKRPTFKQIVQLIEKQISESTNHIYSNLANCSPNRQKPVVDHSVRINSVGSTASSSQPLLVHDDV
Method in brief: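 Radiometric filter-binding read-out: substrate 33P incorporation counted by scintillation after P30 filtermat washes in 75 mM phosphoric acid and methanol. Enzyme: N-GST recombinant human c-Kit aa 544-end carrying V654A.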

efflux ratio at 2 h, 1 μM [1]	IC50 [2] [nM]	IC50 [3] [nM]	SMILES
> 50	100	9.7	Cn1cc(-c2ccc(CNc3cc(-c4cnc5cc(OCCN6CC7CC6C[S+]7[O-])ccn45)ncn3)cc2)cn1 (stereo not drawn) [A199, [4-(1-methyl-1H-pyrazol-4-yl)-benzyl]-(6-{7-[2-(2-oxo-2|4-thia-5-aza-bicyclo[2.2.1]hept-5-yl)-ethoxy]-imidazo[1,2-a]pyridin-3-yl}-pyrimidin-4-yl)-amine]
> 50	38	3.4	CN1CCC(COc2ccn3c(-c4cc(NCc5ccc(-n6ccnn6)cc5)ncn4)cnc3c2)CC1 [A80, {6-[7-(1-methyl-piperidin-4-ylmethoxy)-imidazo[1,2-a]pyridin-3-yl]-pyrimidin-4-yl}-(4-[1,2,3]triazol-1-yl-benzyl)-amine]
< 15	78	4.4	COc1ccn2c(-c3cc(NCc4ccc(-c5cnn(C)n5)cc4)ncn3)cnc2c1 [A32, [6-(7-methoxy-imidazo[1,2-a]pyridin-3-yl)-pyrimidin-4-yl]-[4-(2-methyl-2H-[1,2,3]triazol-4-yl)-benzyl]-amine]
< 15	44	2	OCCOc1ccn2c(-c3cc(NCc4ccc(-c5cocn5)cc4)ncn3)cnc2c1 [A251, 2-{3-[6-(4-oxazol-4-yl-benzylamino)-pyrimidin-4-yl]-imidazo[1,2-a]pyridin-7-yloxy}-ethanol]
< 15	99	13	Cn1cc(-c2ccc(CNc3cc(-c4cnc5cc(OCCN6CCN7CCOCC7C6)ccn45)ncn3)cc2)cn1 (stereo not drawn) [A201, (6-{7-[2-(hexahydro-pyrazino[2,1-c][1,4]oxazin-8-yl)-ethoxy]-imidazo[1,2-a]pyridin-3-yl}-pyrimidin-4-yl)-[4-(1-methyl-1H-pyrazol-4-yl)-benzyl]-amine]
15 to 50	100	11	CN1CCN(CCOc2ccn3c(-c4cc(NCc5ccc(-c6cnn(C)c6)cc5)ncn4)cnc3c2)CCC1=O [A219, 4-methyl-1-[2-(3-{6-[4-(1-methyl-1H-pyrazol-4-yl)-benzylamino]-pyrimidin-4-yl}-imidazo[1,2-a]pyridin-7-yloxy)-ethyl]-[1,4]diazepan-5-one]
15 to 50	86	9.4	Cn1cc(-c2ccc(CNc3cc(-c4cnc5cc(OCCN6CC7(COC7)C6)ccn45)ncn3)cc2)cn1 [A114, [4-(1-methyl-1H-pyrazol-4-yl)-benzyl]-(6-{7-[2-(2-oxa-6-aza-spiro[3.3]hept-6-yl)-ethoxy]-imidazo[1,2-a]pyridin-3-yl}-pyrimidin-4-yl)-amine]
< 15	40	6.7	Cn1cc(-c2ccc(CNc3cc(-c4cnc5cc(OCCCN6CCN(C7CC7)CC6)ccn45)ncn3)cc2)cn1 [A243, (6-{7-[3-(4-cyclopropyl-piperazin-1-yl)-propoxy]-imidazo[1,2-a]pyridin-3-yl}-pyrimidin-4-yl)-[4-(1-methyl-1H-pyrazol-4-yl)-benzyl]-amine]
15 to 50	170	7	Cn1cc(-c2ccc(CNc3cc(-c4cnc5cc(OCC(C)(C)N)ccn45)ncn3)cc2)cn1 [A104, {6-[7-(2-amino-2-methyl-propoxy)-imidazo[1,2-a]pyridin-3-yl]-pyrimidin-4-yl}-[4-(1-methyl-1H-pyrazol-4-yl)-benzyl]-amine]
> 50	61	5.1	CN1CC(COc2ccn3c(-c4cc(NCc5ccc(-c6cnn(C)c6)cc5)ncn4)cnc3c2)C1 [A144, N-{[4-(1-methyl-1H-pyrazol-4-yl)phenyl]methyl}-6-{7-[(1-methylazetidin-3-yl)methoxy]imidazo[1,2-a]pyridin-3-yl}pyrimidin-4-amine]
